≈ marks a conversion by molar mass, not a printed value. Where two headings read alike, the source gives them in different places.
Key:
S. aureus NCTC 4163 = assay: MIC, broth microdilution, standard strain; assay type: cell-based, Staphylococcus aureus; settings: 35 °C; for MIC: Staphylococcus aureus, NCTC4163, 19 h
S. aureus ATCC 25923 = assay: MIC, broth microdilution, standard strain; assay type: cell-based, Staphylococcus aureus; settings: 35 °C; for MIC: Staphylococcus aureus, ATCC25923, 19 h
S. aureus ATCC 6538 = assay: MIC, broth microdilution, standard strain; assay type: cell-based, Staphylococcus aureus; settings: 35 °C; for MIC: Staphylococcus aureus, ATCC6538, 19 h
S. aureus ATCC 29213 = assay: MIC, broth microdilution, standard strain; assay type: cell-based, Staphylococcus aureus; settings: 35 °C; for MIC: Staphylococcus aureus, ATCC29213, 19 h
[1] = tested on: S. epidermidis ATCC 12228; assay: MIC, broth microdilution, standard strain; assay type: cell-based, Staphylococcus epidermidis; settings: 35 °C; for MIC: Staphylococcus epidermidis, ATCC12228, 19 h
[2] = tested on: S. epidermidis ATCC 35984; assay: MIC, broth microdilution, standard strain; assay type: cell-based, Staphylococcus epidermidis; settings: 35 °C; for MIC: Staphylococcus epidermidis, ATCC35984, 19 h
E. coli ATCC 25922 = assay: MIC, broth microdilution, standard strain; assay type: cell-based, Escherichia coli; settings: 35 °C; for MIC: Escherichia coli, ATCC25922, 19 h; for MIC E. coli ATCC 25922: 19 h
P. aeruginosa ATCC 15442 = assay: MIC, broth microdilution, standard strain; assay type: cell-based, Pseudomonas aeruginosa; settings: 35 °C; for MIC: Pseudomonas aeruginosa, ATCC15442, 19 h
S. epidermidis KR 4243 = assay: MIC, broth microdilution, clinical strain; assay type: cell-based, Staphylococcus epidermidis; settings: Staphylococcus epidermidis, KR4243, 19 h, 35 °C
S. pasteuri KR 4358 = assay: MIC, broth microdilution, clinical strain; assay type: cell-based, Staphylococcus pasteuri; settings: Staphylococcus pasteuri, KR4358, 19 h, 35 °C
S. aureus T 5595 = assay: MIC, broth microdilution, clinical strain; assay type: cell-based, Staphylococcus aureus; settings: Staphylococcus aureus, T5595, 19 h, 35 °C
S. aureus T 5591 = assay: MIC, broth microdilution, clinical strain; assay type: cell-based, Staphylococcus aureus; settings: Staphylococcus aureus, T5591, 19 h, 35 °C
E. coli 520 = assay: MIC, broth microdilution, clinical strain; assay type: cell-based, Escherichia coli; settings: Escherichia coli, 520, 19 h, 35 °C
E. coli 600 = assay: MIC, broth microdilution, clinical strain; assay type: cell-based, Escherichia coli; settings: Escherichia coli, 600, 19 h, 35 °C
E. coli 510 = assay: MIC, broth microdilution, clinical strain; assay type: cell-based, Escherichia coli; settings: Escherichia coli, 510, 19 h, 35 °C
P. aeruginosa 659 = assay: MIC, broth microdilution, clinical strain; assay type: cell-based, Pseudomonas aeruginosa; settings: Pseudomonas aeruginosa, 659, read-out: MIC P. aeruginosa 659, 19 h, 35 °C
[3] = tested on: HCT116 (human colon cancer); assay: MTT cytotoxicity assay; assay type: cell-based; settings: mean SD
Description: (§1) The human cell lines SW480 (primary colon cancer), SW620 (lymph node metastatic colon cancer from the same patient as primary cancer cells), HCT116 (colon carcinoma), HepG2 (liver cancer), and HaCaT (immortalized keratinocytes) were obtained from the American Type Culture Collection (ATCC, Rockville, MD, USA). The SW480, SW620 and HCT116 cells were grown in MEM (ThermoSci, Waltham, MA, USA), HepG2 and HaCaT in DMEM High Glucose (Biowest SAS, Nuaillé, France) supplemented with 10% foetal bovine serum (FBS), HEPES (20 mM), and antibiotics (100 U mL^−1 of Penicillin and 100 μg mL^−1 of Streptomycin). The cells were incubated in a humidified incubator at 37 °C/5% CO2, until 80–90% confluence was reached.
(§2) The cell viability was assessed by using of MTT salt [3-(4,5-dimethylthiazol-2-yl)-2,5-diphenyltetrazolium bromide] converted by mitochondrial dehydrogenase, occurring in living cells. The cells were seeded in 96-well plates at a density of 1 × 10^4 cells per well and allowed to adhere for 24 h at 37 °C in a CO2 humidified incubator. […]. The untreated cells were used as the control.
(§3) After 72 h incubation, the medium was replaced with 200 µL per well of free-serum medium containing 0.5 mg mL^−1 MTT and incubated for 4 h at 37 °C in a CO2 humidified incubator. Subsequently, the medium was removed and dimethyl sulfoxide (DMSO) with isopropanol (1:1) was added to dissolve the formazan crystals. The optical density was measured using UVM 340 reader (ASYS Hitech GmbH, Eugendorf, Austria) at a wavelength of 570 nm. The experiments were repeated three times. The cell viability was calculated as the percent of MTT reduced in treated cells versus control cells (untreated cells). The number of viable cells cultured without tested compounds was assumed as 100%. A decreased relative MTT level indicates decreased cell viability. The IC50 values were estimated using CompuSyn version 1.0.

[4] = tested on: HaCaT (human immortal keratinocyte cell line); assay: MTT cytotoxicity assay; assay type: cell-based; settings: 72 h, mean SD, read-out: IC50 HaCaT (normal cells)
Description: as §1, §2, §3

[5] = tested on: HepG2 (human liver cancer); assay: MTT cytotoxicity assay; assay type: cell-based; settings: mean SD
Description: as §1, §2, §3

[6] = tested on: SW480 (human primary colon cancer); assay: MTT cytotoxicity assay; assay type: cell-based; settings: mean SD
Description: as §1, §2, §3

[7] = tested on: SW620 (human metastatic colon cancer); assay: MTT cytotoxicity assay; assay type: cell-based; settings: mean SD
Description: as §1
The cell viability was assessed by using of MTT salt [3-(4,5-dimethylthiazol-2-yl)-2,5-diphenyltetrazolium bromide] converted by mitochondrial dehydrogenase, occurring in living cells. […] The untreated cells were used as the control.
as §3, with “Subsequently,” for “After 72 h incubation, the medium was replaced with 200 µL per well of free-serum medium containing 0.5 mg mL^−1 MTT and incubated for 4 h at 37 °C in a CO2 humidified incubator. Subsequently,”

[8] = tested on: standard Gram-positive Staphylococci; assay: MIC, panel of standard Gram-positive strains; assay type: cell-based, Staphylococcus; settings: range over all standard Gram-positive Staphylococci
[9] = tested on: standard bacteria strains; assay: Antimicrobial screening (MIC), standard bacteria strains; assay type: cell-based; settings: MIC evaluation
Description: Obtained compounds were examined for antimicrobial potency. Firstly, all of them were screened for their minimal inhibitory concentrations (MICs). A suitable set of bacteria was used, including representative standard Gram-positive and Gram-negative rods (Table 2 and Table 3). For clarity, results are presented for menthol and thymol derivatives separately.
The antimicrobial assays were conducted using reference strains of bacteria derived from international microbe collections: American Type Culture Collection (ATCC) and National Collection of Type Culture (NCTC). The following standard strains of bacteria were used: Gram-positive—Staphylococcus aureus NCTC 4163, Staphylococcus aureus ATCC 25923, Staphylococcus aureus ATCC 6538, Staphylococcus aureus ATCC 29213, Staphylococcus epidermidis ATCC 12228, Staphylococcus epidermidis ATCC 35984, Gram-negative: Escherichia coli ATCC 25922, Pseudomonas aeruginosa ATCC 15442. […] Antimicrobial activity was examined by the Minimal Inhibitory Concentration (MIC) method under standard procedures provided by CLSI with some modifications. MIC was determined by the two-fold serial broth microdilution method in 96-well microtitration plates using Mueller–Hinton II broth medium (Becton Dickinson, Franklin Lakes, NJ, USA). The final inoculum of all studied bacteria was 10^6 CFU/mL (colony forming unit per millilitre). The stock solution of tested compounds was prepared in dimethyl sulfoxide (DMSO) and diluted to a maximum of 1% of solvent content with a sterile medium.

Compound	MIC (S. aureus NCTC 4163) [µg/mL]	MIC (S. aureus ATCC 25923) [µg/mL]	MIC (S. aureus ATCC 6538) [µg/mL]	MIC (S. aureus ATCC 29213) [µg/mL]	MIC [1] [µg/mL]	MIC [2] [µg/mL]	MIC (E. coli ATCC 25922) [µg/mL]	MIC (P. aeruginosa ATCC 15442) [µg/mL]	MIC (S. epidermidis KR 4243) [µg/mL]	MIC (S. pasteuri KR 4358) [µg/mL]	MIC (S. aureus T 5595) [µg/mL]	MIC (S. aureus T 5591) [µg/mL]	MIC (E. coli 520) [µg/mL]	MIC (E. coli 600) [µg/mL]	IC50 ([3]; Homo sapiens, HCT-116, 72 h) [µM]	IC50 ([4]; Homo sapiens, HaCaT) [µM]	IC50 ([5]; Homo sapiens, HepG2, 72 h) [µM]	IC50 ([6]; Homo sapiens, SW480, 72 h) [µM]	IC50 ([7]; Homo sapiens, SW-620, 72 h) [µM]	Antimicrobial activity (in words) [9]	other results
CC(C)[C@@H]1CC[C@@H](C)C[C@H]1OC(=O)CCCCCN1CCN(c2cc3c(cc2F)c(=O)c(C(=O)O)cn3C2CC2)CC1 [Compound 6, 1-cyclopropyl-6-fluoro-7-{4-[6-((1R,2S,5R)-2-isopropyl-5-methylcyclohexyloxy)-6-oxohexyl]piperazin-1-yl}-4-oxo-1,4-dihydroquinoline-3-carboxylic acid]	4 (≈ 6.85 µM)	8 (≈ 13.7 µM)	4 (≈ 6.85 µM)	8 (≈ 13.7 µM)	8 (≈ 13.7 µM)	8 (≈ 13.7 µM)	32 (≈ 54.8 µM)	256 (≈ 439 µM)	8 (≈ 13.7 µM)	8 (≈ 13.7 µM)	8 (≈ 13.7 µM)	8 (≈ 13.7 µM)	64 (≈ 110 µM)	64 (≈ 110 µM)	29.5 ± 2.1	> 100	53.7 ± 0.9	46.2 ± 1.8	38.1 ± 2.5	–	MIC (E. coli 510): > 256 µg/mL; MIC (P. aeruginosa 659): > 256 µg/mL; melting point: 210.8 to 212.4 °C
Cc1ccc(C(C)C)c(OC(=O)CCCN2CCN(c3cc4c(cc3F)c(=O)c(C(=O)O)cn4C3CC3)CC2)c1 [Compound 12, 1-cyclopropyl-6-fluoro-7-{4-[4-(2-isopropyl-5-methylphenoxy)-4-oxobutyl]piperazin-1-yl}-4-oxo-1,4-dihydroquinoline-3-carboxylic acid]	1.6 (≈ 2.91 µM)	0.8 (≈ 1.46 µM)	1.6 (≈ 2.91 µM)	0.8 (≈ 1.46 µM)	0.8 (≈ 1.46 µM)	0.8 (≈ 1.46 µM)	2 to 4 (≈ 3.64 to 7.28 µM)	12.8 (≈ 23.3 µM)	2 (≈ 3.64 µM)	1 (≈ 1.82 µM)	4 (≈ 7.28 µM)	1 (≈ 1.82 µM)	8 (≈ 14.6 µM)	4 (≈ 7.28 µM)	28.6 ± 0.1	59.1 ± 3.1	43.4 ± 3.1	33.7 ± 3.5	61.8 ± 0.1	–	MIC E. coli ATCC 25922 (E. coli ATCC 25922): 3.2 µg/mL (≈ 5.82 µM); MIC (E. coli 510): 128 µg/mL (≈ 233 µM); MIC (P. aeruginosa 659): 64 µg/mL (≈ 116 µM); MIC range against standard Gram-positive strains [8]: 0.8 to 1.6 µg/mL
2-(2-isopropyl-5-methylphenoxy)-2-oxobutyl-1-cyclopropyl-6-fluoro-7-{4-[2-(2-isopropyl-5-methylphenoxy)-2-oxobutyl]piperazin-1-yl}-4-oxo-1,4-dihydroquinoline-3-carboxylate [Compound 15]	–	–	–	–	–	–	–	–	–	–	–	–	–	–	–	–	–	–	–	rather inactive	MIC S. aureus NCTC 4163 (S. aureus NCTC 4163; 19 h): 64 µg/mL; MIC S. aureus ATCC 25923 (S. aureus ATCC 25923; 19 h): 64 µg/mL; MIC S. aureus ATCC 6538 (S. aureus ATCC 6538; 19 h): 128 µg/mL; MIC S. aureus ATCC 29213 (S. aureus ATCC 29213; 19 h): 256 µg/mL; MIC S. epidermidis ATCC 12228 ([1]; 19 h): 128 µg/mL; MIC S. epidermidis ATCC 35984 ([2]; 19 h): 128 µg/mL; MIC E. coli ATCC 25922 (E. coli ATCC 25922): 128 µg/mL; MIC P. aeruginosa ATCC 15442 (P. aeruginosa ATCC 15442; 19 h): >256 µg/mL; IC50 ([3]; 72 h): 48.2 ± 5.3 µM; IC50 [4]: 67.1 ± 4.6 µM; IC50 ([5]; 72 h): 61.8 ± 1.5 µM; IC50 ([6]; 72 h): 40.8 ± 4.2 µM; IC50 ([7]; 72 h): 57.4 ± 3.6 µM
Cc1ccc(C(C)C)c(OC(=O)CCCCCOC(=O)c2cn(C3CC3)c3cc(N4CCN(CCCCCC(=O)Oc5cc(C)ccc5C(C)C)CC4)c(F)cc3c2=O)c1 [Compound 16]	128 (≈ 155 µM)	128 (≈ 155 µM)	64 (≈ 77.7 µM)	256 (≈ 311 µM)	128 (≈ 155 µM)	128 (≈ 155 µM)	> 256	> 256	–	–	–	–	–	–	30.5 ± 2.3	64.9 ± 5.1	41.8 ± 2.5	29.5 ± 1.9	49.6 ± 7	rather inactive	–
CC(C)[C@@H]1CC[C@@H](C)C[C@H]1OC(=O)CCCCCOC(=O)c1cn(C2CC2)c2cc(N3CCN(CCCCCC(=O)O[C@@H]4C[C@H](C)CC[C@H]4C(C)C)CC3)c(F)cc2c1=O [Compound 8, 6-((1R,2S,5R)-2-isopropyl-5-methylcyclohexyloxy)-6-oxohexyl-1-cyclopropyl-6-fluoro-7-{4-[6-((1R,2S,5R)-2-isopropyl-5-methylcyclohexyloxy)-6-oxohexyl]piperazin-1-yl}-4-oxo-1,4-dihydroquinoline-3-carboxylate]	> 256	> 256	> 256	> 256	> 256	> 256	> 256	> 256	–	–	–	–	–	–	31.6 ± 7.4	33.4 ± 3.8	30.2 ± 1.9	78.2 ± 5.8	48.7 ± 2.8	rather inactive	–

Source: paper PMC9224473 (International Journal of Molecular Sciences, 2022)
